The test system of the test is primary human bronchial cells. The test is described as follows: Eicosanoid formation in calcium ionophore stimulated primary bronchial epithelial cells (LC/ESI-MSMS of AMPP amides). It is filed as cell-based. The conditions noted are these: +Ca ionophore (A23187, 10 uM, 20 min, 37° C.); 0.47 million cells per sample. As to the method:
The University of Washington Institutional Review Board approved the studies involving human subjects, and written informed consent was obtained from all participants. Primary bronchial epithelial cells were isolated from a volunteer with asthma during bronchoscopy using a nylon cytology brush of cells from subsegmental airways. To establish primary culture, the epithelial cells were seeded into a culture vessel coated with type 1 collagen in bronchial epithelial basal media (BEBM, Lonza, Allendale, N.J.) supplemented with bovine pituitary extract, insulin, hydrocortisone, gentamicin, amphotericin B, fluconazole, retinoic acid, transferrin, triiodothyronine, epinephrine, and human recombinant epidermal growth factor (serum-free BEGM) and maintained at 37° C. in a humidified incubator. After expansion in vitro, passage 2 epithelial cells were grown to >90% confluence on a 12-well plate. The medium was changed to Hanks balanced salt solution, and the cells were treated with either calcium ionophore (A23187, 10 uM) or a DMSO-containing control solution for 20 min at 37° C. In some studies, the cytosolic phospholipase A2-α inhibitor Pyr-2^6 was present at 5 uM, added from a stock solution in DMSO. The synthesis of eicosanoids was stopped by the addition of 4 volumes of ice methanol with 0.2% formic acid. […] The studies were performed in duplicate. Samples were processed for derivatization with AMPP and LC/ESI-MSMS as for the serum samples.

As for `CNc1ccc2oc(C[C@H]3O[C@@]4(CC[C@H]3C)O[C@H]([C@H](C)C(=O)c3ccc[nH]3)[C@H](C)C[C@H]4C)nc2c1C(=O)O` [Ca ionophore], the “11(S)-HETE level” value stood at 3.7 pg, the “15(S)-HETE level” value amounted to 7.8 pg, the Arachidonic acid level was found to be 242 pg and the PGD2 level amounted to 4.4 pg. Further, the PGE2 level is 39 pg, the PGF2α level turned out to be 60 pg and the TxB2 level stood at 1.3 pg.

(Values after patent US9045421B2, “Reagent and method for detection of carboxylic acids by mass spectrometry” (University of Washington, priority 2010, dated 2015).)
